One block for each molecule: values may come before it.
What was measured:
sortilin = target: T1, sortilin (Homo sapiens, UniProt Q99523); test: SPR, immobilised sortilin, CM5 chip; type: binding
T1 sequence (Q99523 78-755): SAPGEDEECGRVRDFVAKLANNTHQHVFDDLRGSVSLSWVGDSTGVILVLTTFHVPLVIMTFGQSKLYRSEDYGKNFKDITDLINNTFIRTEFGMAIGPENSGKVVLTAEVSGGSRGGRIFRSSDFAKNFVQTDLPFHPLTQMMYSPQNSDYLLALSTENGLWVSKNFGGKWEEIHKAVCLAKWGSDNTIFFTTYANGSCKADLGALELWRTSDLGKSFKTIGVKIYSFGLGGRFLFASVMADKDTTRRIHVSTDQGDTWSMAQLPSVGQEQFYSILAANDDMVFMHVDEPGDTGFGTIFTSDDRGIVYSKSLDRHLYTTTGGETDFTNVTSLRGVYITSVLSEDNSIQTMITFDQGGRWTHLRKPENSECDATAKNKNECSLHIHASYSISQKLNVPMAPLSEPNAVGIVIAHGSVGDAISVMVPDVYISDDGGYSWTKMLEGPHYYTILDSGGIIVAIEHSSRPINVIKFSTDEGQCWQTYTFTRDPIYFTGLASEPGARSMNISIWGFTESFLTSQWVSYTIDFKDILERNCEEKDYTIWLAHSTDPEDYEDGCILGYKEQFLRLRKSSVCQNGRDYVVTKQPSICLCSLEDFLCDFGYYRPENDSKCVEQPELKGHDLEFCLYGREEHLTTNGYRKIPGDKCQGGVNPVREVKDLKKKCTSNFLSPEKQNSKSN

[1] = target: T2, Neurotensin C-terminal fragment (Ct-NT) C-terminal 4 residues (Homo sapiens, UniProt P30990); test: SPR competition with PIP3 nanodiscs
T2 chain: PYIL

[2] = target: T2, Neurotensin C-terminal fragment (Ct-NT) …; test: SPR

Molecule: CN1CCC[C@H]1C(=O)Nc1cccc(NC(=O)CCc2ccccc2)c1 [cpd984, (2S)-1-methylN-3-[(3-phenypropanoyl)-amino]phenylpyrrolidine-2-carboxamied]
Kd (sortilin): 118 ± 38 nM

Molecule: CCCCCCCC(=O)OC[C@H](COP(=O)(O)O[C@H]1[C@H](O)[C@@H](OP(=O)(O)O)[C@H](OP(=O)(O)O)[C@@H](OP(=O)(O)O)[C@H]1O)OC(=O)CCCCCCC [diC8-PIP3]
Kd (sortilin): 4200 ± 400 nM

The next lines start with the values.

Kd (sortilin): 6900 ± 1100 nM
Molecule: C[C@@H](NC(=O)c1ccccc1NCC(=O)O)c1ccccc1 [cpd541]

IC50 [1]: 157 nM
Kd [2]: ~120 nM
B1: Sortilin luminal beta-propeller domain (protein)
chain: NNTHQHVFDDLRGSVSLSWVGDSTGVILVLTTFHVPLVIMTFGQSKLYRSEDYGKNFKDITDLINNTFIRTEFGMAIGPENSGKVVLTAEVSGGSRGGRIFRSSDFAKNFVQTDLPFHPLTQMMYSPQNSDYLLALSTENGLWVSKNFGGKWEEIHKAVCLAKWGSDNTIFFTTYANGSCKADLGALELWRTSDLGKSFKTIGVKIYSFGLGGRFLFASVMADKDTTRRIHVSTDQGDTWSMAQLPSVGQEQFYSILAANDDMVFMHVDEPGDTGFGTIFTSDDRGIVYSKSLDRHLYTTTGGETDFTNVTSLRGVYITSVLSEDNSIQTMITFDQGGRWTHLRKPENSECDATAKNKNECSLHIHASYSISQKLNVPMAPLSEPNAVGIVIAHGSVGDAISVMVPDVYISDDGGYSWTKMLEGPHYYTILDSGGIIVAIEHSSRPINVIKFSTDEGQCWQTYTFTRDPIYFTGLASEPGARSMNISIWGFTESFLTSQWVSYTIDF

From article PMC7674269 (Biochemistry, 2020)
